Where a name gives a salt, the structure may show the parent alone. Read-outs that look alike come from different tables or passages of the source.
How the values were obtained:
[1] = cited from earlier work
tumor = conditions: background on camptothecin; cited from earlier work
topoisomerase I = conditions: background on camptothecin; cited from earlier work
leukemia (L-1210) = conditions: laboratory animals; cited from earlier work
certain solid tumors = conditions: laboratory animals; cited from earlier work
[2] = Oxidation during purification; assay type: physicochemical; conditions: oxidizes to the sulfinyl compound of Example 27
Experimental: Mp. 195° C. (dec). MS MH+554.

topoisomerase Type I = molecular target: T1, topoisomerase Type I (Bos taurus, UniProt F1MN93); assay: biochemical
T1 sequence (F1MN93 1-767): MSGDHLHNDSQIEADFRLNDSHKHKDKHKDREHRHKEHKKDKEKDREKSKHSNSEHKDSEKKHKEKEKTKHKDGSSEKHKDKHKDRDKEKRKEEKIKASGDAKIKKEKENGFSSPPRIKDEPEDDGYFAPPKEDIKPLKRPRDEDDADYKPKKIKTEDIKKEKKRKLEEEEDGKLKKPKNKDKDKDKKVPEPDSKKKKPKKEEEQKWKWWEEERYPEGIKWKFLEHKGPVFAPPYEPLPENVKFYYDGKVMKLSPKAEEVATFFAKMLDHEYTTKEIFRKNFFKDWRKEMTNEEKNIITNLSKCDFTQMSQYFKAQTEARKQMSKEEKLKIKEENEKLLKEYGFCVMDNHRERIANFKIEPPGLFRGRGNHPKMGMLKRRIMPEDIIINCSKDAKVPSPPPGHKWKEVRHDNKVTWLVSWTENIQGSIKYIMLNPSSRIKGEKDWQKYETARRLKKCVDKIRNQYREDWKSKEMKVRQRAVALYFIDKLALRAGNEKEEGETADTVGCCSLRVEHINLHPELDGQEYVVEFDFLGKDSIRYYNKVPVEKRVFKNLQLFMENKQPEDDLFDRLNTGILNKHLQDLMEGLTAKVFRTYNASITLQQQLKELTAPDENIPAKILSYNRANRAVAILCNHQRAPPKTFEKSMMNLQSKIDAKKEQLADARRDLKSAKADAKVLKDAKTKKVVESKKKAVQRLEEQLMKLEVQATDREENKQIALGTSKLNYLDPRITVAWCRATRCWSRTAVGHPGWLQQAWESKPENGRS
Experimental: Cleavable Complex in vitro Assay
The relative topoisomerase Type I inhibitory activity of the compounds of formula (I) was determined by cleavable complex in vitro assay. This assay performed according to the method described in Hsiang, Y. et al., J. Biol. Chem., 260:14873-14878 (1985), correlates well with in vivo anti-tumor activity of topoisomerase inhibitors in animal models of cancer, e.g., camptothecin and its analogs. See Hsiang et al., Cancer Research, 49:4385-4389 (1989) and Jaxel et al., Cancer Research, 49:1465-1469 (1989).

[3] = Wani et al.; cited from earlier work

CC[C@@](O)(C(=O)O)c1cc2n(c(=O)c1CO)Cc1cc3ccccc3nc1-2 [sodium salt]
solubility in physiologically compatible, aqueous media [1]: soluble

CC[C@@]1(O)C(=O)OCc2c1cc1n(c2=O)Cc2cc3ccccc3nc2-1 [Camptothecin]
antitumor activity (tumor): potent antitumor agent
topoisomerase I inhibition (topoisomerase I): topoisomerase I inhibitor
effectiveness in the treatment of leukemia (L-1210) (leukemia (L-1210)): effective
effectiveness in the treatment of certain solid tumors (certain solid tumors): effective
solubility in physiologically compatible, aqueous media [1]: essentially insoluble

CC[C@@]1(O)C(=O)OCc2c1cc1n(c2=O)Cc2c-1nc1cc3c(cc1c2C[S+]([O-])CCCN(C)C)OCCO3 (stereo partly drawn) [Example 27, 7-(3-Dimethylaminopropylsulfinyl)methyl-10,11-(ethylenedioxy)-20(S)-camptothecin]
oxidation during purification [2]: readily oxidize

CCCCOP(=O)(Cc1c2c(nc3cc4c(cc13)OCCO4)-c1cc3c(c(=O)n1C2)COC(=O)[C@]3(O)CC)OCCCC [Example 15, 7-Di-n-butylphosphonomethylene-10,11-(ethylenedioxy)-20(S)-camptothecin]
IC50 (topoisomerase Type I): > 2000 nM

CCC1(O)C(=O)OCc2c1cc1n(c2=O)Cc2cc3cc4c(cc3nc2-1)OCO4 (stereo not drawn) [10,11-methylenedioxycamptothecin]
water solubility ([1]; compared with camptothecin): as poor as camptothecin
potency relative to unsubstituted camptothecin [3]: more potent

CC[C@@]1(O)C(=O)OCc2c1cc1n(c2=O)Cc2c-1nc1cc3c(cc1c2CSc1ccc(NC(=O)CN(C)C)cc1)OCCO3 [Example 28, 7-(4-(2-Dimethylaminoacetamido)phenylthio)methyl-10,11-(ethylenedioxy)-20(S)-camptothecin]
IC50 (topoisomerase Type I): > 500 nM

CC[C@@]1(O)C(=O)OCc2c1cc1n(c2=O)Cc2c-1nc1cc3c(cc1c2CSc1ccc(N)cc1)OCCO3 [Example 18, 7-(4-Aminophenylthio)methyl-10,11-(ethylenedioxy)-20(S)-camptothecin]
IC50 (topoisomerase Type I): > 500 nM

CC[C@@]1(O)C(=O)OCc2c1cc1n(c2=O)Cc2c-1nc1cc3c(cc1c2C[n+]1cccc(CO)c1)OCCO3 [Example 36, 7-(3'-Hydroxymethylpyridinium)methylene-10,11-ethylenedioxy-20(S)-camptothecin chloride]
IC50 (topoisomerase Type I; concentration at which 50% of the DNA substrate has been captured by topoisomerase 1, read-out: topoisomerase Type I inhibitory activity (IC50)): > 500 nM

CCC1(O)C(=O)OCc2c1cc1n(c2=O)Cc2c-1nc1cc3c(cc1c2C[n+]1ccccc1)OCCO3 (racemic) [Example 31, 7-Pyridinium methylene-10,11 ethylenedioxy-20(R,S)-camptothecin chloride]
IC50 (topoisomerase Type I): > 1000 nM

CC[C@@]1(O)C(=O)OCc2c1cc1n(c2=O)Cc2c-1nc1cc3c(cc1c2CSc1ccc(NC(C)=O)cc1)OCCO3 [Example 17, 7-(4-Acetamidophenylthio)methyl-10,11-(ethylenedioxy)-20(S)-camptothecin]
IC50 (topoisomerase Type I; read-out: topoisomerase Type I inhibitory activity (IC50), concentration at which 50% of the DNA substrate has been captured by topoisomerase 1): > 500 nM

From patent US6100273A, “Water soluble camptothecin derivatives” (priority 1997, dated 2000)
